Experimental data: paper PMC11645656, “MRGPRX4 mediates phospho-drug associated pruritus in a humanized mouse model” (Science translational medicine, 2024)
Values joined by “and” are separate entries in the source; they are usually repeats but may differ in a detail not shown here. Equal values may be shown once.

Experiments:
MRGPRX4 WT (S83) = MRGPRX4 WT (S83) (Homo sapiens, UniProt Q96LA9, L83S); experiment: PRESTO-Tango β-arrestin recruitment assay, HTLA cells stably expressing WT (S83) MRGPRX4; assay type: cell-based; parameters: expressed in transfected cells; conditions: for PRESTO-Tango response (fig. S1), single replicate: HTLA::MRGPRX4; for fig. S7 response (raw signal), concentration-response: WT, single replicate
Sequence of MRGPRX4 WT (S83) (Q96LA9 whole entry L83S, the tested form may be a part): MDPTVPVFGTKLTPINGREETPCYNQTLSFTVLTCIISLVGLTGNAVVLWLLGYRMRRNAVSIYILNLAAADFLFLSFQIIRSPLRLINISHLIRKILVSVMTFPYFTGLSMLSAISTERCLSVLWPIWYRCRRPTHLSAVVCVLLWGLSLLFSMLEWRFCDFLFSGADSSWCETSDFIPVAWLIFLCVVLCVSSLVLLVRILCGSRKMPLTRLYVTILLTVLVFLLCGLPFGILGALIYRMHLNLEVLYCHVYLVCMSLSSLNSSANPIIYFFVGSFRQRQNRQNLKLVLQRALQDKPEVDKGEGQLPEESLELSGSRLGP
Protocol: HTLA cells, a cell line derived from HEK293 and engineered to stably express a tTA-dependent luciferase reporter and a β-arrestin2-TEV fusion gene, were generously provided by Richard Axel's laboratory. HTLA cells were cultured in growth medium containing 2 μg/ml puromycin and 100 μg/ml hygromycin B in 5% CO2 at 37 °C. Stably MRGPRX4-expressing HTLA cells were generated by transfecting pcDNA3.1(+)-Zeo containing MRGPRX4-Tango construct (either with WT or S83L mutant sequence) into HTLA cells with Lipofectamine 3000 and selecting the successful transfected clones with Zeocin.
HTLA cells stably expressing either WT or S83L MRGPRX4 were seeded in PDL-coated 96-well white clear bottom cell culture plates with DMEM containing 10% FBS, at a density of 35,000 cells per well and were allowed to attach to the bottom of the wells overnight. The next day, growth medium was replaced with 100 μl of serum-free medium containing the tested drugs at various concentrations, and the cells were then incubated at 37°C for 24 h. On the following day, media with drug solutions was removed and 50 μl per well of Bright-Glo™ Reagent from Bright-Glo™ Luciferase Assay System (Promega) was loaded. The plate was incubated at room temperature in the dark for 5 min, and the relative luminescence units were measured using the Flexstation-3 instrument with SoftMax®Pro 7.1 software (Molecular Devices). Dose response curves and EC50s were analyzed as described above.
Data are from at least two independent experiments, each performed in
triplicate, and are depicted as mean ± SEM.
arrestin2-TEV fusion gene and a tTA -dependent luciferase reporter.

NP2-WT mice = experiment: Itch behavioral study (scratching bouts after subcutaneous nape injection) in littermate control NP2-WT mice; assay type: in vivo; conditions: 30 min after injection of 50 μl 10 mM into the nape, each cell one mouse
Excerpt: Fig. 2. Phosphate monoester prodrugs induce itch in NP2-MRGPRX4+ mice through activating NP2 primary sensory neurons. (A) Mating strategy to generate NP2-X4+ mice. (B) In situ hybridization showing MRGPRX4 transcripts (magenta) in NP2-X4+ DRG as indicated by arrowheads (left) but not in littermate control NP2-WT (right). NP2 subpopulation accounts for 5% of total DRG neurons. DAPI, blue. Scale bar, 50 μm. […] . Data are expressed as mean ± SEM. *p< 0.05, **p< 0.01 and ***p< 0.001 by two-tailed unpaired Student’s t-test. ns = no statistical significance observed. (D and E) Traces of average (top, depicted as mean ± 95% confidence interval) and individual (bottom, reflected by the heatmap) calcium activity, measured by fluorescence intensity normalized to the baseline intensity (FT/F0) over time of NP2-X4+ (D) and NP2-WT (E) DRG neurons labelled with GCaMP6s (n = 110–150 neurons pooled from 3–7 independent culture vessels from 2–4 mice in each condition). 10 μM phospho-drugs and 1 mM CQ were added as indicated by the arrowheads. Neurons with FT/F0 > 1.5 after compound application were considered a positive responder. NP2-X4+: NP2-MRGPRX4+; DRG, dorsal root ganglia; CQ: chloroquine.
. All the animals used were heterozygous unless otherwise specified. NP2-X4+ and NP2-WT littermates were generated by crossing Mrgpra3-Cre to Rosa26-lsl-MRGPRX4 as detailed previously ([15]). NP2-X4+ mice were further crossed to homozygous Rosa26-lsl-GCaMP6s to obtain NP2-WT/GCaMP6s and NP2-X4+/GCaMP6s animals. A detailed mating strategy is illustrated in fig. S5. Pirt-Cre-GCaMP6s animals were acquired by crossing Pirt-Cre to homozygous Rosa26-lsl-GCaMP6s. Pirt-Cre animals were generated through homologous recombination as indicated previously ([37]). Rosa26-lsl-GCaMP6s mouse line was provided by Dr. Dwight Bergles’ lab at the Johns Hopkins School of Medicine.

MRGPRX4 (S83) = molecular target: T1, MRGPRX4 (S83) (Homo sapiens, UniProt Q96LA9, L83S); experiment: EC50 determination, intracellular calcium mobilization in MRGPRX4 stably expressed HEK293 cells (FLIPR Calcium 5, Flexstation-3); assay type: cell-based; parameters: Fig. 1D dose-response, calcium mobilization response (individual replicate) / calcium mobilization response (Fig. 1D dose-response raw data): unit not given here; conditions: for calcium mobilization response (Fig. 1D dose-response raw data): individual replicate values
T1 construct: expressed in transfected cells
T1 sequence (Q96LA9 whole entry L83S): as the sequence (Q96LA9 whole entry L83S, the tested form may be a part) above
Outline: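 EC50 came from a four-parameter logistic fit to averaged triplicate responses, each response being maximum post-stimulation signal less baseline. Intracellular calcium was monitored with Calcium 5 dye in HBSS with 20 mM HEPES, pH 7.4, after 1 h dye loading at 37 °C, using stably transfected HEK293 cells and parental controls.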

[1] = IV, clinical trials; ref New Drug Application: 020450; cited from earlier work
[2] = system: NP2-X4+ mice (MRGPRX4 in Mrgpra3+ NP2 sensory neurons); experiment: Itch behavioral study (scratching bouts after subcutaneous nape injection) in NP2-X4+ mice; assay type: in vivo, mouse

EC50 (MRGPRX4 (S83); MRGPRX4 stably expressed HEK293 cells, calcium mobilization, read-out: EC50): 77 nM | Hill coefficient (MRGPRX4 (S83); dose-response curve fitting, table S1): 1.917
Structure (SMILES): O=C1NC(c2ccccc2)(c2ccccc2)C(=O)N1COP(=O)(O)O [Fosphenytoin]
PRESTO-Tango response (fig. S1), single replicate (MRGPRX4 WT (S83); concentration 1.95e-7 M): 0.2272 and 0.1839 and 0.1708 and 0.08379 and 0.0626 and 0.06306 | PRESTO-Tango response (fig. S1), single replicate (MRGPRX4 WT (S83); concentration 3.91e-7 M): 0.258 and 0.2297 and 0.204 and 0.07839 and 0.196 and 0.08224 | PRESTO-Tango response (fig. S1), single replicate (MRGPRX4 WT (S83); concentration 7.81e-7 M): 0.5296 and 0.4272 and 0.4321 and 0.1295 and 0.1604 and 0.1155 | PRESTO-Tango response (fig. S1), single replicate (MRGPRX4 WT (S83); concentration 1.56e-6 M): 1.193 and 1.025 and 0.8155 and 0.2489 and 0.1773 and 0.193 | PRESTO-Tango response (fig. S1), single replicate (MRGPRX4 WT (S83); concentration 3.13e-6 M): 2.598 and 2.433 and 2.514 and 0.4404 and 0.5024 and 0.4535 | PRESTO-Tango response (fig. S1), single replicate (MRGPRX4 WT (S83); concentration 6.25e-6 M): 5.285 and 4.4353 and 4.292 and 0.9622 and 0.8766 and 0.6627 | PRESTO-Tango response (fig. S1), single replicate (MRGPRX4 WT (S83); concentration 1.25e-5 M): 7.96 and 6.958 and 5.919 and 1.839 and 1.437 and 1.511 | PRESTO-Tango response (fig. S1), single replicate (MRGPRX4 WT (S83); concentration 2.5e-5 M): 10.7681 and 8.616 and 8.444 and 2.5381 and 2.199 and 2 | PRESTO-Tango response (fig. S1), single replicate (MRGPRX4 WT (S83); concentration 5e-5 M): 10.7109 and 8.966 and 9.235 and 2.8872 and 2.833 and 2.449 | PRESTO-Tango response (fig. S1), single replicate (MRGPRX4 WT (S83); concentration 0.0001 M): 9.427 and 8.942 and 7.727 and 3.267 and 2.882 and 2.338 | PRESTO-Tango response (fig. S1), single replicate (MRGPRX4 WT (S83); concentration 0.0002 M): 8.979 and 8.052 and 6.854 and 2.562 and 2.3992 and 2.255 | fig. S7 response (raw signal), concentration-response (MRGPRX4 WT (S83); 1.95e-7 M): 22724.6 and 18390.5 and 17083.6 and 8378.77 and 6259.78 and 6305.82 and 12291.8 and 11793.8 and 15486 | fig. S7 response (raw signal), concentration-response (MRGPRX4 WT (S83); 3.91e-7 M): 25803.9 and 22965.5 and 20401.3 and 7839.11 and 19602.9 and 8224.03 and 24524.9 and 14963.1 and 12930.4 | fig. S7 response (raw signal), concentration-response (MRGPRX4 WT (S83); 7.81e-7 M): 52955.5 and 42723 and 43213.9 and 12950.5 and 16037.6 and 11551.5 and 30971.1 and 30307.2 and 28437.7 | fig. S7 response (raw signal), concentration-response (MRGPRX4 WT (S83); 1.56e-6 M): 119282 and 102488 and 81549.3 and 24892.1 and 17734.6 and 19298.5 and 55751 and 73836.3 and 53034.5 | fig. S7 response (raw signal), concentration-response (MRGPRX4 WT (S83); 3.13e-6 M): 259763 and 243320 and 251368 and 44035.9 and 50243.2 and 45345.4 and 138332 and 159511 and 149195 | fig. S7 response (raw signal), concentration-response (MRGPRX4 WT (S83); 6.25e-6 M): 528451 and 443530 and 429228 and 96221.6 and 87656.1 and 66266.7 and 291383 and 234158 and 300136 | fig. S7 response (raw signal), concentration-response (MRGPRX4 WT (S83); 1.25e-5 M): 795954 and 695772 and 591944 and 183925 and 143683 and 151143 and 437126 and 336645 and 507439 | fig. S7 response (raw signal), concentration-response (MRGPRX4 WT (S83); 2.5e-5 M): 1076811 and 861577 and 844388 and 253810 and 219862 and 200044 and 648692 and 547623 and 531932 | fig. S7 response (raw signal), concentration-response (MRGPRX4 WT (S83); 5e-5 M): 1071085 and 896572 and 923510 and 288720 and 283304 and 244853 and 667677 and 558954 and 627391 | fig. S7 response (raw signal), concentration-response (MRGPRX4 WT (S83); 0.0001 M): 942731 and 894246 and 772701 and 326668 and 288202 and 233769 and 534832 and 581310 and 583017 | fig. S7 response (raw signal), concentration-response (MRGPRX4 WT (S83); 0.0002 M): 897926 and 805208 and 685441 and 256156 and 239920 and 225546 and 318639 and 44935 | Scratching bouts of individual animals (NP2-WT mice): 33 and 0 and 2 and 9 and 5 and 14 and 6 and 20 and 4 | calcium mobilization response (Fig. 1D dose-response raw data) (MRGPRX4 (S83); concentration 3.90625e-9 M): 21.206 and 25.291 and 2.769 and 3.958 and -8.2623 and 8.875 and 8.837 and 9.145 and 8.934 | calcium mobilization response (Fig. 1D dose-response raw data) (MRGPRX4 (S83); concentration 7.8125e-9 M): -14.542 and 13.805 and 7.794 and 12.8387 and 12.8087 and 12.5987 and 3.298 and 9.875 and 9.477 | calcium mobilization response (Fig. 1D dose-response raw data) (MRGPRX4 (S83); concentration 1.5625e-8 M): 19.866 and 22.527 and 5.041 and 1.449 and 6.253 and 14.7987 and -3.2365 and 13.5705 and -5.8765 | calcium mobilization response (Fig. 1D dose-response raw data) (MRGPRX4 (S83); concentration 3.125e-8 M): 57.235 and 30.337 and 81.497 and 17.5777 and 19.6667 and 31.6637 and -30.287 and 41.9265 and -1.7705 | calcium mobilization response (Fig. 1D dose-response raw data) (MRGPRX4 (S83); concentration 6.25e-8 M): 190.544 and 229.236 and 134.524 and 58.9937 and 67.8137 and 76.3827 and 88.4165 and 111.221 and 55.6105 | calcium mobilization response (Fig. 1D dose-response raw data) (MRGPRX4 (S83); concentration 1.25e-7 M): 316.003 and 301.004 and 304.213 and 117.536 and 116.768 and 79.1877 and 194.175 and 173.792 and 144.932 | calcium mobilization response (Fig. 1D dose-response raw data) (MRGPRX4 (S83); concentration 2.5e-7 M): 345.7 and 324.779 and 337.838 and 121.175 and 136.568 and 118.794 and 200.38 and 226.084 and 171.163 | calcium mobilization response (Fig. 1D dose-response raw data) (MRGPRX4 (S83); concentration 5e-7 M): 387.516 and 373.964 and 353.304 and 134.73 and 112.159 and 119.649 and 195.132 and 238.81 and 185.954 | calcium mobilization response (Fig. 1D dose-response raw data) (MRGPRX4 (S83); concentration 1e-6 M): 410.183 and 413.027 and 415.898 and 143.736 and 123.579 and 132.916 and 226.932 and 271.213 and 250.762 | calcium mobilization response (Fig. 1D dose-response raw data) (MRGPRX4 (S83); concentration 2e-6 M): 394.314 and 370.112 and 382.271 and 127.759 and 125.948 and 138.324 and 218.164 and 295.676 and 255.523 | Patients who reported itch [1]: 48.9% | Scratching / itch behavior, NP2-X4+ mice vs WT littermates ([2]; 50 μl 10 mM nape injection, 30 min): significantly increased scratching behavior | Scratching bouts of individual animals ([2]; NP2-X4+, 30 min after injection of 50 μl 10 mM into the nape, each cell one mouse): 32 and 55 and 37 and 89 and 49 and 39 and 73 and 83 and 25 and 94
